Results: patent publication US10556888B2, “Pyrazole compounds or salts thereof, preparation methods therefor, herbicidal compositions and use thereof” (QINGDAO KINGAGROOT CHEMICAL COMPOUNDS CO., LTD, priority 2015, dated 2020)

How the values were obtained:
[1] = test system: main crop (wheat, corn, rice, soybean, cotton, oilseed, millet and sorghum); assay: Post-emergence test experiment, main crops (Table 2); format: in vivo; set-up: key: Level 10: completely dead; Level 9: above 90% growth inhibition rate; Level 8: above 80% growth inhibition rate; Level 7: above 70% growth inhibition rate; Level 6: above 60% growth inhibition rate; Level 5: above 50% growth inhibition rate; Level 4: above 30% growth inhibition rate; Level 3: above 20% growth inhibition rate; Level 2: above 10% growth inhibition rate; Level 1: above 1-10% growth inhibition rate; Level 0: no effect; settings: 3 weeks after spraying, greenhouse
Summary of the method: (§1)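 Weed and crop seeds (wheat, corn, rice, soybean, cotton, oilseed, millet, sorghum) grown in soil in greenhouse; sprayed at 2-3 leaf stage, 2-3 weeks after sowing, with compound in acetone/Tween 80/water. Effects assessed after 3 weeks further greenhouse culture.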

[2] = test system: Monocotyledonous and dicotyledonous weed; assay: Post-emergence test experiment, weed control effect (Table 2); format: in vivo; set-up: key to weed control effect, Setaria viridis (level) / weed control effect, Rorippa indica (level) / weed control effect, Abutilon theophrasti (level) / weed control effect, Echinochloa crus-galli (level) / weed control effect, Digitaria sanguinalis (level): Level 10: completely dead; Level 9: above 90% growth inhibition rate; Level 8: above 80% growth inhibition rate; Level 7: above 70% growth inhibition rate; Level 6: above 60% growth inhibition rate; Level 5: above 50% growth inhibition rate; Level 4: above 30% growth inhibition rate; Level 3: above 20% growth inhibition rate; Level 2: above 10% growth inhibition rate; Level 1: above 1-10% growth inhibition rate; Level 0: no effect; settings: 3 weeks after spraying, greenhouse
Summary of the method: as §1

Compound: Cn1cc(C(=O)Oc2c(C(=O)c3ccc(S(C)(=O)=O)c(Cn4cccn4)c3Cl)c(C3CC3)nn2C)cn1 [Compound 19]
- effect on crop, corn (level) ([1]; 60 g/ha): 0
- effect on crop, rice (level) ([1]; 60 g/ha): 1 (Level 1: above 1-10% growth inhibition rate)
- effect on crop, wheat (level) ([1]; 60 g/ha): 0
- weed control effect, Abutilon theophrasti (level) ([2]; 60 g/ha): 10
- weed control effect, Bidens pilosa (level) ([2]; 60 g/ha): 8 (Level 8: above 80% growth inhibition rate)
- weed control effect, Digitaria sanguinalis (level) ([2]; 60 g/ha): 10
- weed control effect, Echinochloa crus-galli (level) ([2]; 60 g/ha): 10
- weed control effect, Rorippa indica (level) ([2]; 60 g/ha): 10
- weed control effect, Setaria viridis (level) ([2]; 60 g/ha): 8 (Level 8: above 80% growth inhibition rate)

Compound: C#CCOCc1c(S(C)(=O)=O)ccc(C(=O)c2cnn(C)c2OC(=O)c2cnn(C)c2)c1Cl [Compound 61]
- effect on crop, corn (level) ([1]; 30 g/ha): 0
- effect on crop, rice (level) ([1]; 30 g/ha): 3 (Level 3: above 20% growth inhibition rate)
- effect on crop, wheat (level) ([1]; 30 g/ha): 0
- weed control effect, Abutilon theophrasti (level) ([2]; 30 g/ha): 7 (Level 7: above 70% growth inhibition rate)
- weed control effect, Bidens pilosa (level) ([2]; 30 g/ha): 7 (Level 7: above 70% growth inhibition rate)
- weed control effect, Digitaria sanguinalis (level) ([2]; 30 g/ha): 7 (Level 7: above 70% growth inhibition rate)
- weed control effect, Echinochloa crus-galli (level) ([2]; 30 g/ha): 10
- weed control effect, Rorippa indica (level) ([2]; 30 g/ha): 10
- weed control effect, Setaria viridis (level) ([2]; 30 g/ha): 5 (Level 5: above 50% growth inhibition rate)

Compound: Cc1nn(C)c(OC(=O)c2cnn(C)c2)c1C(=O)c1ccc(S(C)(=O)=O)c(COCC(F)(F)C(F)F)c1Cl [Compound 65]
- effect on crop, corn (level) ([1]; 30 g/ha): 0
- effect on crop, rice (level) ([1]; 30 g/ha): 3 (Level 3: above 20% growth inhibition rate)
- effect on crop, wheat (level) ([1]; 30 g/ha): 0
- weed control effect, Abutilon theophrasti (level) ([2]; 30 g/ha): 6 (Level 6: above 60% growth inhibition rate)
- weed control effect, Bidens pilosa (level) ([2]; 30 g/ha): 7 (Level 7: above 70% growth inhibition rate)
- weed control effect, Digitaria sanguinalis (level) ([2]; 30 g/ha): 7 (Level 7: above 70% growth inhibition rate)
- weed control effect, Echinochloa crus-galli (level) ([2]; 30 g/ha): 10
- weed control effect, Rorippa indica (level) ([2]; 30 g/ha): 10
- weed control effect, Setaria viridis (level) ([2]; 30 g/ha): 6 (Level 6: above 60% growth inhibition rate)

Compound: Cc1cc(C)n(Cc2c(S(C)(=O)=O)ccc(C(=O)c3c(C)nn(C)c3OC(=O)c3cnn(C)c3)c2C)n1 [Compound 79]
- effect on crop, corn (level) ([1]; 120 g/ha): 0
- effect on crop, rice (level) ([1]; 120 g/ha): 0
- effect on crop, wheat (level) ([1]; 120 g/ha): 0
- weed control effect, Abutilon theophrasti (level) ([2]; 120 g/ha): 6 (Level 6: above 60% growth inhibition rate)
- weed control effect, Bidens pilosa (level) ([2]; 120 g/ha): 6 (Level 6: above 60% growth inhibition rate)
- weed control effect, Digitaria sanguinalis (level) ([2]; 120 g/ha): 1 (Level 1: above 1-10% growth inhibition rate)
- weed control effect, Echinochloa crus-galli (level) ([2]; 120 g/ha): 10
- weed control effect, Rorippa indica (level) ([2]; 120 g/ha): 4 (Level 4: above 30% growth inhibition rate)
- weed control effect, Setaria viridis (level) ([2]; 120 g/ha): 3 (Level 3: above 20% growth inhibition rate)

Compound: COCCCOCc1c(S(C)(=O)=O)ccc(C(=O)c2c(C3CC3)nn(C)c2OC(=O)c2cn(C)nc2C)c1Cl [Compound 52]
- effect on crop, corn (level) ([1]; 30 g/ha): 1 (Level 1: above 1-10% growth inhibition rate)
- effect on crop, rice (level) ([1]; 30 g/ha): 3 (Level 3: above 20% growth inhibition rate)
- effect on crop, wheat (level) ([1]; 30 g/ha): 0
- weed control effect, Abutilon theophrasti (level) ([2]; 30 g/ha): 7 (Level 7: above 70% growth inhibition rate)
- weed control effect, Bidens pilosa (level) ([2]; 30 g/ha): 7 (Level 7: above 70% growth inhibition rate)
- weed control effect, Digitaria sanguinalis (level) ([2]; 30 g/ha): 7 (Level 7: above 70% growth inhibition rate)
- weed control effect, Echinochloa crus-galli (level) ([2]; 30 g/ha): 10
- weed control effect, Rorippa indica (level) ([2]; 30 g/ha): 10
- weed control effect, Setaria viridis (level) ([2]; 30 g/ha): 6 (Level 6: above 60% growth inhibition rate)

Compound: Cc1nn(C)cc1C(=O)Oc1c(C(=O)c2ccc(S(C)(=O)=O)c(COCC(F)(F)C(F)F)c2Cl)c(C2CC2)nn1C [Compound 48]
- effect on crop, corn (level) ([1]; 30 g/ha): 0
- effect on crop, rice (level) ([1]; 30 g/ha): 3 (Level 3: above 20% growth inhibition rate)
- effect on crop, wheat (level) ([1]; 30 g/ha): 0
- weed control effect, Abutilon theophrasti (level) ([2]; 30 g/ha): 7 (Level 7: above 70% growth inhibition rate)
- weed control effect, Bidens pilosa (level) ([2]; 30 g/ha): 7 (Level 7: above 70% growth inhibition rate)
- weed control effect, Digitaria sanguinalis (level) ([2]; 30 g/ha): 7 (Level 7: above 70% growth inhibition rate)
- weed control effect, Echinochloa crus-galli (level) ([2]; 30 g/ha): 10
- weed control effect, Rorippa indica (level) ([2]; 30 g/ha): 10
- weed control effect, Setaria viridis (level) ([2]; 30 g/ha): 9 (Level 9: above 90% growth inhibition rate)

Compound: CCn1nc(C)c(C(=O)c2ccc(S(C)(=O)=O)c(COCC(F)(F)C(F)F)c2C)c1OC(=O)c1cnn(C)c1 [Compound 85]
- effect on crop, corn (level) ([1]; 30 g/ha): 0
- effect on crop, rice (level) ([1]; 30 g/ha): 3 (Level 3: above 20% growth inhibition rate)
- effect on crop, wheat (level) ([1]; 30 g/ha): 0
- weed control effect, Abutilon theophrasti (level) ([2]; 30 g/ha): 6 (Level 6: above 60% growth inhibition rate)
- weed control effect, Bidens pilosa (level) ([2]; 30 g/ha): 7 (Level 7: above 70% growth inhibition rate)
- weed control effect, Digitaria sanguinalis (level) ([2]; 30 g/ha): 8 (Level 8: above 80% growth inhibition rate)
- weed control effect, Echinochloa crus-galli (level) ([2]; 30 g/ha): 9 (Level 9: above 90% growth inhibition rate)
- weed control effect, Rorippa indica (level) ([2]; 30 g/ha): 10
- weed control effect, Setaria viridis (level) ([2]; 30 g/ha): 8 (Level 8: above 80% growth inhibition rate)

Compound: Cc1cnn(Cc2c(S(C)(=O)=O)ccc(C(=O)c3cnn(C)c3OC(=O)c3cn(C)nc3C)c2Cl)c1 [Compound 07]
- effect on crop, corn (level) ([1]; 120 g/ha): 0
- effect on crop, rice (level) ([1]; 120 g/ha): 0
- effect on crop, wheat (level) ([1]; 120 g/ha): 0
- weed control effect, Abutilon theophrasti (level) ([2]; 120 g/ha): 6 (Level 6: above 60% growth inhibition rate)
- weed control effect, Bidens pilosa (level) ([2]; 120 g/ha): 6 (Level 6: above 60% growth inhibition rate)
- weed control effect, Digitaria sanguinalis (level) ([2]; 120 g/ha): 1 (Level 1: above 1-10% growth inhibition rate)
- weed control effect, Echinochloa crus-galli (level) ([2]; 120 g/ha): 10
- weed control effect, Rorippa indica (level) ([2]; 120 g/ha): 4 (Level 4: above 30% growth inhibition rate)
- weed control effect, Setaria viridis (level) ([2]; 120 g/ha): 5 (Level 5: above 50% growth inhibition rate)

Compound: CCOc1c(C(=O)Oc2c(C(=O)c3ccc(S(C)(=O)=O)c(COCC(F)(F)F)c3Cl)c(C)nn2C)cnn1C [Compound 55]
- effect on crop, corn (level) ([1]; 30 g/ha): 2 (Level 2: above 10% growth inhibition rate)
- effect on crop, rice (level) ([1]; 30 g/ha): 3 (Level 3: above 20% growth inhibition rate)
- effect on crop, wheat (level) ([1]; 30 g/ha): 0
- weed control effect, Abutilon theophrasti (level) ([2]; 30 g/ha): 7 (Level 7: above 70% growth inhibition rate)
- weed control effect, Bidens pilosa (level) ([2]; 30 g/ha): 7 (Level 7: above 70% growth inhibition rate)
- weed control effect, Digitaria sanguinalis (level) ([2]; 30 g/ha): 10
- weed control effect, Echinochloa crus-galli (level) ([2]; 30 g/ha): 10
- weed control effect, Rorippa indica (level) ([2]; 30 g/ha): 10
- weed control effect, Setaria viridis (level) ([2]; 30 g/ha): 10

Compound: COCCCOCc1c(S(C)(=O)=O)ccc(C(=O)c2cnn(C)c2OC(=O)c2cn(C)nc2C)c1Cl [Compound 53]
- effect on crop, corn (level) ([1]; 30 g/ha): 1 (Level 1: above 1-10% growth inhibition rate)
- effect on crop, rice (level) ([1]; 30 g/ha): 3 (Level 3: above 20% growth inhibition rate)
- effect on crop, wheat (level) ([1]; 30 g/ha): 0
- weed control effect, Abutilon theophrasti (level) ([2]; 30 g/ha): 7 (Level 7: above 70% growth inhibition rate)
- weed control effect, Bidens pilosa (level) ([2]; 30 g/ha): 7 (Level 7: above 70% growth inhibition rate)
- weed control effect, Digitaria sanguinalis (level) ([2]; 30 g/ha): 8 (Level 8: above 80% growth inhibition rate)
- weed control effect, Echinochloa crus-galli (level) ([2]; 30 g/ha): 10
- weed control effect, Rorippa indica (level) ([2]; 30 g/ha): 10
- weed control effect, Setaria viridis (level) ([2]; 30 g/ha): 6 (Level 6: above 60% growth inhibition rate)

Compound: Cc1c(C(=O)c2c(C3CC3)nn(C)c2OC(=O)c2cnn(C)c2)ccc(S(C)(=O)=O)c1COCC(F)(F)F [Compound 78]
- effect on crop, corn (level) ([1]; 30 g/ha): 1 (Level 1: above 1-10% growth inhibition rate)
- effect on crop, rice (level) ([1]; 30 g/ha): 3 (Level 3: above 20% growth inhibition rate)
- effect on crop, wheat (level) ([1]; 30 g/ha): 0
- weed control effect, Abutilon theophrasti (level) ([2]; 30 g/ha): 7 (Level 7: above 70% growth inhibition rate)
- weed control effect, Bidens pilosa (level) ([2]; 30 g/ha): 7 (Level 7: above 70% growth inhibition rate)
- weed control effect, Digitaria sanguinalis (level) ([2]; 30 g/ha): 7 (Level 7: above 70% growth inhibition rate)
- weed control effect, Echinochloa crus-galli (level) ([2]; 30 g/ha): 10
- weed control effect, Rorippa indica (level) ([2]; 30 g/ha): 10
- weed control effect, Setaria viridis (level) ([2]; 30 g/ha): 10

Compound: Cc1nn(C)cc1C(=O)Oc1c(C(=O)c2ccc(S(C)(=O)=O)c(Cn3cccn3)c2C)cnn1C [Compound 77]
- effect on crop, corn (level) ([1]; 30 g/ha): 1 (Level 1: above 1-10% growth inhibition rate)
- effect on crop, rice (level) ([1]; 30 g/ha): 3 (Level 3: above 20% growth inhibition rate)
- effect on crop, wheat (level) ([1]; 30 g/ha): 0
- weed control effect, Abutilon theophrasti (level) ([2]; 30 g/ha): 7 (Level 7: above 70% growth inhibition rate)
- weed control effect, Bidens pilosa (level) ([2]; 30 g/ha): 7 (Level 7: above 70% growth inhibition rate)
- weed control effect, Digitaria sanguinalis (level) ([2]; 30 g/ha): 7 (Level 7: above 70% growth inhibition rate)
- weed control effect, Echinochloa crus-galli (level) ([2]; 30 g/ha): 10
- weed control effect, Rorippa indica (level) ([2]; 30 g/ha): 10
- weed control effect, Setaria viridis (level) ([2]; 30 g/ha): 10

Compound: Cc1nn(C)cc1C(=O)Oc1c(C(=O)c2ccc(S(C)(=O)=O)c(COCC(F)(F)C(F)F)c2Cl)c(C)nn1C [Compound 35]
- effect on crop, corn (level) ([1]; 30 g/ha): 1 (Level 1: above 1-10% growth inhibition rate)
- effect on crop, rice (level) ([1]; 30 g/ha): 5 (Level 5: above 50% growth inhibition rate)
- effect on crop, wheat (level) ([1]; 30 g/ha): 0
- weed control effect, Abutilon theophrasti (level) ([2]; 30 g/ha): 7 (Level 7: above 70% growth inhibition rate)
- weed control effect, Bidens pilosa (level) ([2]; 30 g/ha): 7 (Level 7: above 70% growth inhibition rate)
- weed control effect, Digitaria sanguinalis (level) ([2]; 30 g/ha): 7 (Level 7: above 70% growth inhibition rate)
- weed control effect, Echinochloa crus-galli (level) ([2]; 30 g/ha): 10
- weed control effect, Rorippa indica (level) ([2]; 30 g/ha): 5 (Level 5: above 50% growth inhibition rate)
- weed control effect, Setaria viridis (level) ([2]; 30 g/ha): 6 (Level 6: above 60% growth inhibition rate)
